Patent US9334269B2, “Carboxamides as inhibitors of voltage-gated sodium channels” (AMGEN INC., priority 2010, dated 2016)

Molecular target: T1, human Nav1.7 (hNav1.7) (Homo sapiens, UniProt Q15858)
T1 construct: expressed in transfected cells
Experiment: hNav1.7 whole-cell patch-clamp electrophysiology (automated PatchXpress 7000A or manual) in stably expressing 293 cells
Assay type: cell-based
Settings: average IC50, human Nav1.7
Description: Compounds were tested on human Nav1.7 (hNav1.7) expressed stably in 293 cells, which have no endogenous sodium channels. Two forms of whole-cell patch-clamp assays were used. In both, peak current through Nav1.7 was evoked by a depolarizing voltage pulse, and currents were monitored as a function of time in response to exposure to several different concentrations of drug. Automated electrophysiology uses the PatchXpress 7000A system. Up to sixteen cells at a time were voltage-clamped in parallel, and the steady-state voltage dependence of inactivation was determined experimentally for each cell. For each cell, fractional inactivation was set at 20%, and peak current through Nav1.7 as a function of time was measured in response to increasing concentrations of test compound. Manual electrophysiology refers to conventional whole-cell patch-clamping (Hamill et al., 1981). After formation of the whole-cell clamp, cells were lifted off the bottom of the dish with the patch pipette and positioned directly in front of an array of glass microperfusion tubes each with internal diameter about 250 microns, with individual compound concentrations flowing from each tube. Current as a function of time in response to increasing drug concentrations was measured with Nav1.7 fully in the resting state (holding voltage set to −140 mV) and on the same cells with the holding voltage set to produce about 20% inactivation. Compounds were not applied for a prespecified time, but for as long as required to achieve a stable level of block. For both forms of electrophysiology, offline analysis was used to correct for rundown of channel current and to determine percent inhibition as a function of drug concentration. IC50 were determined by fitting to the Hill equation.

T1 sequence (Q15858 whole entry): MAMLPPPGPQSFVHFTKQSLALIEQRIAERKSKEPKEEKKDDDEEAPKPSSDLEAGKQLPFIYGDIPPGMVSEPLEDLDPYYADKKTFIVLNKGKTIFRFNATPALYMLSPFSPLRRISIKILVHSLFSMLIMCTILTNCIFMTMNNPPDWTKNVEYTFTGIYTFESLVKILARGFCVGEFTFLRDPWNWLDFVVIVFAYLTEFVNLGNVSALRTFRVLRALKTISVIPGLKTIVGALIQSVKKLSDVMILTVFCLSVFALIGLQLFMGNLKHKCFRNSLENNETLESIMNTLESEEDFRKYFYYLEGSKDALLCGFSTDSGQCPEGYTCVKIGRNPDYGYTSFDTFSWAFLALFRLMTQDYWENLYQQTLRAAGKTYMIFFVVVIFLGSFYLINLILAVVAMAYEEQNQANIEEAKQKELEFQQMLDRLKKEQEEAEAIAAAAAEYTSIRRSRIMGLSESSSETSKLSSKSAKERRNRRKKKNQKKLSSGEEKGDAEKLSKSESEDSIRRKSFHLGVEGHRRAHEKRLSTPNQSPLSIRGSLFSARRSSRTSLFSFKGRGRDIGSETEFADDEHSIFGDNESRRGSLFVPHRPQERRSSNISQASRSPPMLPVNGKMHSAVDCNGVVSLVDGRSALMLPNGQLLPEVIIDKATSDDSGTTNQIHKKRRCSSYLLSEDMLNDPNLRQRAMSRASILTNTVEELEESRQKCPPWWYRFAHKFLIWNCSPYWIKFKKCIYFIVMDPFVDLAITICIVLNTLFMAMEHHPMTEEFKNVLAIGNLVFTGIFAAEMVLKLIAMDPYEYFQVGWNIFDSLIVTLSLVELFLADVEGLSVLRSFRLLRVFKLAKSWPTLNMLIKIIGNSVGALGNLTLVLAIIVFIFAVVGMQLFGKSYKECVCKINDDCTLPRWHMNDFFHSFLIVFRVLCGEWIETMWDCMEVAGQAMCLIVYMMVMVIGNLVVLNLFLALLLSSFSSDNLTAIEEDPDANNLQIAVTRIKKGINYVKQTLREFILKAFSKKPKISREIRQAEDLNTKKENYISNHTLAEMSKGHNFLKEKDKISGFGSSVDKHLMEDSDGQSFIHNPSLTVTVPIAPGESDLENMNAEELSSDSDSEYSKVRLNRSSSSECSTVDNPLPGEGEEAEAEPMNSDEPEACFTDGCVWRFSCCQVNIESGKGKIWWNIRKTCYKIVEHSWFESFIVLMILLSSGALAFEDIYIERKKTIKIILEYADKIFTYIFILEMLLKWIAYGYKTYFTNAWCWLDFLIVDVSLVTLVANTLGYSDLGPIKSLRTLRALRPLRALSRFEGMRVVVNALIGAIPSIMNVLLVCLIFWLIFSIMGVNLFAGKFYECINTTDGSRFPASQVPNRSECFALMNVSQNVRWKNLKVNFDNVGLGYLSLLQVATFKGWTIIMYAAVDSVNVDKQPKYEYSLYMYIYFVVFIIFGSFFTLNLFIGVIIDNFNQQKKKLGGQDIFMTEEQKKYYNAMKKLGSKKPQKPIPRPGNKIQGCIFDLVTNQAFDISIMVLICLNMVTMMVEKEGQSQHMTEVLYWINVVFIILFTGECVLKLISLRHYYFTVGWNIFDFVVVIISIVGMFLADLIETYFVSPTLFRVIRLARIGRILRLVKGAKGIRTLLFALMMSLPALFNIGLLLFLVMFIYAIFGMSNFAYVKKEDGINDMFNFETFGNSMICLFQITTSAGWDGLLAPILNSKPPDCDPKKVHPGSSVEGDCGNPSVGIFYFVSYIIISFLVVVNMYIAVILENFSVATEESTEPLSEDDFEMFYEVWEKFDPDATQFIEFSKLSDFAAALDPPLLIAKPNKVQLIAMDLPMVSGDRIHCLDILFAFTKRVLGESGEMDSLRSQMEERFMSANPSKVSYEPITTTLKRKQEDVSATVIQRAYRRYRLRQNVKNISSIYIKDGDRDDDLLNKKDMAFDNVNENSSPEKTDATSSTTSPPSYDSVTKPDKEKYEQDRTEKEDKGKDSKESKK

| Structure (SMILES) | IC50 [µM] |
| --- | --- |
| CNC(=O)c1cccc(Nc2ncnc(N3CC(Oc4cc(Cl)ccc4Cl)C3)n2)c1 [Example 18] | 0.31 |
| CNC(=O)c1cccc(Nc2nccc(N3CC(Oc4ccc(Cl)c(C)c4)C3)n2)c1 [Example 19] | 0.31 |
| CNC(=O)c1cccc(Nc2ncnc(N3CC(Oc4ccc(Cl)cc4F)C3)n2)c1 [Example 21] | 0.33 |
| CNC(=O)c1cccc(Nc2ncnc(N3CC(Oc4ccc5c(c4)CCC5)C3)n2)c1 [Example 22] | 0.35 |
| CNC(=O)c1cccc(Nc2ncnc(N3CCC(c4nc(-c5ccccc5)cs4)CC3)n2)c1 [Example 24] | 0.38 |
| CNC(=O)c1cccc(Nc2ncnc(N3CC(Oc4cccc(Cl)c4)C3)n2)c1 [Example 25] | 0.38 |
| CNC(=O)c1cccc(Nc2ncnc(N3CCC(c4csc(-c5ccccc5)n4)CC3)n2)c1 [Example 26] | 0.39 |
| CNC(=O)c1cc(Nc2ncnc(N3CCC(c4nc(-c5ccccc5)cs4)CC3)n2)ccc1Cl [Example 27] | 0.4 |
| CNC(=O)c1cccc(Nc2ncnc(N3CC(Oc4ccccc4Cl)C3)n2)c1 [Example 29] | 0.42 |
| CNC(=O)c1cccc(Nc2nccc(N3CC(Oc4ccc(Cl)cc4)C3)n2)c1 [Example 30] | 0.43 |
| CNC(=O)c1cccc(Nc2nccc(N3CC(Oc4ccc(OC)cc4)C3)n2)c1 [Example 31] | 0.43 |
| CNC(=O)c1cccc(Nc2ncnc(N3CC(Oc4ccc(C)cc4Cl)C3)n2)c1 [Example 32] | 0.44 |
| CNC(=O)c1cccc(Nc2ncnc(N3CC(Oc4ccc(C(F)(F)F)cc4)C3)n2)c1 [Example 35] | 0.47 |
| CNC(=O)c1cccc(Nc2ncnc(N3CCC(C(=O)c4ccc(Cl)cc4)CC3)n2)c1 [Example 36] | 0.49 |
| CNC(=O)c1cc(F)cc(Nc2ncnc(N3CC(Oc4ccc(Cl)cc4)C3)n2)c1 [Example 37] | 0.49 |
| CNC(=O)c1cccc(Nc2ncnc(N3CCc4cc(OCC(F)(F)F)ccc4C3)n2)c1 [Example 41] | 0.52 |
| CNC(=O)c1cccc(Nc2ncnc(N3CC(Oc4ccc(C(C)C)cc4)C3)n2)c1 [Example 42] | 0.57 |
| CNC(=O)c1cccc(Nc2ncnc(N3CCN(c4cccc(C(F)(F)F)c4)CC3)n2)c1 [Example 43] | 0.6 |
| CNC(=O)c1cccc(Nc2ncnc(N3CCC(Oc4ccccc4)CC3)n2)c1 [Example 45] | 0.63 |
| COCCNC(=O)c1cccc(Nc2ncnc(N3CC(COc4ccc(Cl)cc4)C3)n2)c1 [Example 47] | 0.64 |
| CNC(=O)c1cccc(Nc2ncnc(N3CCC(Oc4cccc(F)c4)CC3)n2)c1 [Example 48] | 0.65 |
| CNC(=O)c1cccc(Nc2ncnc(N3CC(Oc4cccc(C)c4)C3)n2)c1 [Example 49] | 0.65 |
| CNC(=O)c1cc(Nc2ncnc(N3CC(Oc4ccc(Cl)cc4)C3)n2)ccc1N(C)C [Example 50] | 0.65 |

| Structure (SMILES) | IC50 [µM] |
| --- | --- |
| CNC(=O)c1cccc(Nc2ncnc(N3CC(Oc4ccc(Cl)cc4Cl)C3)n2)c1 [Example 51] | 0.65 |
| CNC(=O)c1cccc(Nc2ncnc(N3CC=C(c4nc(-c5ccccc5)cs4)CC3)n2)c1 [Example 52] | 0.66 |
| CNC(=O)c1cccc(Nc2ncnc(N3CC(Oc4ccc(F)cc4Cl)C3)n2)c1 [Example 54] | 0.72 |
| CNC(=O)c1cccc(Nc2nccc(N3CC(Oc4ccc(Cl)c(F)c4)C3)n2)c1 [Example 55] | 0.74 |
| CNC(=O)c1cc(Nc2ncnc(N3CC(Oc4ccc(F)cc4)C3)n2)ccc1F [Example 57] | 0.76 |
| CNC(=O)c1cccc(Nc2nccc(N3CC(Oc4ccc(Cl)c(Cl)c4)C3)n2)c1 [Example 59] | 0.78 |
| CNC(=O)c1cccc(Nc2ncnc(N3CC(Oc4ccc(F)cc4)C3)n2)c1 [Example 61] | 0.81 |
| CNC(=O)c1cccc(Nc2ncnc(N3CC(Oc4cccc(C(F)(F)F)c4)C3)n2)c1 [Example 62] | 0.82 |
| CNC(=O)c1cccc(Nc2ncnc(N3CC(Oc4c(Cl)cccc4Cl)C3)n2)c1 [Example 63] | 0.82 |
| CNC(=O)c1cccc(Nc2ncnc(N3CCC(c4ccccc4)CC3)n2)c1 [Example 65] | 0.84 |
| CNC(=O)c1cccc(Nc2ncnc(N3CC(Oc4cc(C)ccc4Cl)C3)n2)c1 [Example 66] | 0.84 |
| CNC(=O)c1cccc(Nc2ncnc(N3CC(COc4ccc(OC(F)(F)F)cc4)C3)n2)c1 [Example 67] | 0.85 |
| CNC(=O)c1cccc(Nc2ncnc(N3CCC(Oc4ccc(OC(F)(F)F)c(F)c4)CC3)n2)c1 [Example 68] | 0.86 |
| CNC(=O)c1cccc(Nc2ncnc(N3CCN(c4cccc(Cl)c4)CC3)n2)c1 [Example 69] | 0.87 |
| CNC(=O)c1cccc(Nc2ccnc(N3CC(Oc4ccc(F)cc4)C3)n2)c1 [Example 71] | 0.9 |
| CNC(=O)c1cccc(Nc2ncnc(N3CCN(c4ccc(C(F)(F)F)cc4)CC3)n2)c1 [Example 74] | 0.96 |
| CNC(=O)c1cc(Nc2ncnc(NCCCOc3ccc(OC(F)(F)F)cc3)n2)ccc1Cl [Example 75] | 0.96 |
| CNC(=O)c1cccc(Nc2ncnc(N3CCN(c4cccc(C)n4)CC3)n2)c1 [Example 76] | 0.97 |
| CNC(=O)c1cccc(Nc2ncnc(N3CCc4cc(OCCC(F)(F)F)ccc4C3)n2)c1 [Example 77] | 0.98 |
| CNC(=O)c1cc(Nc2ncnc(N3CC(Oc4ccc(Cl)cc4F)C3)n2)ccc1Cl [Example 79] | 1 |
| CNC(=O)c1cccc(Nc2ncnc(N3CCN(c4cccc(C)c4C)CC3)n2)c1 [Example 81] | 1.03 |
| CNC(=O)c1cccc(Nc2ncnc(N3CCC(Oc4ccccc4Cl)CC3)n2)c1 [Example 85] | 1.17 |
| CNC(=O)c1cccc(Nc2ncnc(N3CC(Oc4ccc(OC)cc4)C3)n2)c1 [Example 87] | 1.23 |

More lines, in order of falling IC50, values ahead:

| IC50 [µM] | Structure (SMILES) |
| --- | --- |
| 1.2 | CNC(=O)c1cccc(Nc2ncnc(N3CC(Oc4cccc(F)c4)C3)n2)c1 [Example 86] |
| 1.08 | CNC(=O)c1cccc(Nc2ncnc(N3CCC(Oc4ccc(Cl)c(F)c4)CC3)n2)c1 [Example 84] |
| 1.06 | CNC(=O)c1cccc(Nc2ncnc(N3CCN(c4ccc(OC(F)(F)F)cc4)CC3)n2)c1 [Example 82] |
| 1.06 | CNC(=O)c1cccc(Nc2ncnc(N3CC(Oc4ccc(SC(F)(F)F)cc4)C3)n2)c1 [Example 83] |
| 1.03 | CNC(=O)c1cccc(Nc2ncnc(N3CC(Oc4cccc(OC)c4)C3)n2)c1 [Example 80] |
| 0.99 | C#Cc1cccc(OC2CN(c3ncnc(Nc4cccc(C(=O)NC)c4)n3)C2)c1 [Example 78] |
| 0.9 | CNC(=O)c1cccc(Nc2ncnc(N3CCc4c(C#N)cccc4C3)n2)c1 [Example 72] |
| 0.9 | CNC(=O)c1cccc(Nc2ncnc(N3CC(COc4ccc(Cl)cc4C)C3)n2)c1 [Example 73] |
| 0.89 | CNC(=O)c1cc(Nc2ncnc(N3CC(COc4ccc(Cl)cc4)C3)n2)ccc1F [Example 70] |
| 0.83 | CNC(=O)c1cc(Nc2ncnc(NCCCOc3ccc(OC(F)(F)F)cc3)n2)ccc1F [Example 64] |
| 0.79 | CNC(=O)c1cccc(Nc2ncnc(N3CCN(c4cccc(F)c4)CC3)n2)c1 [Example 60] |
| 0.76 | CNC(=O)c1cccc(Nc2ncnc(N3CCC(Oc4ccc(OC(F)(F)F)cc4)CC3)n2)c1 [Example 58] |
| 0.75 | CNC(=O)c1cccc(Nc2cccc(N3CC(Oc4ccc(F)cc4)C3)n2)c1 [Example 56] |
| 0.69 | CNC(=O)c1cccc(Nc2ncnc(N3CCN(c4ccc(C)c(C)c4)CC3)n2)c1 [Example 53] |
| 0.63 | CNC(=O)c1cccc(Nc2ncnc(N3CC=C(c4csc(-c5ccccc5)n4)CC3)n2)c1 [Example 46] |
| 0.61 | CNC(=O)c1cccc(Nc2ncnc(N3CCN(c4cccc(OC)c4)CC3)n2)c1 [Example 44] |
| 0.5 | COCCNC(=O)c1cccc(Nc2ncnc(N3CC(Oc4ccc(F)cc4)C3)n2)c1 [Example 38] |
| 0.5 | CNC(=O)c1cccc(Nc2ncnc(N3CC(Oc4ccc(Cl)c(Cl)c4)C3)n2)c1 [Example 39] |
| 0.5 | CNC(=O)c1cccc(Nc2ncnc(N3CC(COc4ccc(Cl)cc4)C3)n2)c1 [Example 40] |
| 0.47 | CNC(=O)c1cccc(Nc2ncnc(N3CCN(c4ccc(C)cc4)CC3)n2)c1 [Example 34] |
| 0.45 | CNC(=O)c1cccc(Nc2ncnc(N3CC(Oc4ccccc4)C3)n2)c1 [Example 33] |
| 0.4 | COCCNC(=O)c1cccc(Nc2ncnc(N3CC(Oc4ccc(Cl)cc4)C3)n2)c1 [Example 28] |
| 0.35 | CNC(=O)c1cccc(Nc2ncnc(N3CCN(c4cccc(OC(F)(F)F)c4)CC3)n2)c1 [Example 23] |
| 0.32 | CNC(=O)c1cccc(Nc2ncnc(N3CC(Oc4ccc(Cl)cc4C)C3)n2)c1 [Example 20] |
| 0.3 | CCc1cccc(OC2CN(c3ncnc(Nc4cccc(C(=O)NC)c4)n3)C2)c1 [Example 17] |
| 0.29 | CNC(=O)c1cccc(Nc2ncnc(N3CC(Oc4ccc(F)cc4C)C3)n2)c1 [Example 16] |
| 0.28 | CNC(=O)c1cc(Nc2ncnc(N3CC(Oc4ccc(Cl)cc4F)C3)n2)ccc1F [Example 14] |
| 0.28 | CNC(=O)c1cccc(Nc2ncnc(N3CC(Oc4ccc(F)c(Cl)c4)C3)n2)c1 [Example 15] |
| 0.27 | CNC(=O)c1cccc(Nc2ncnc(NCCCOc3ccc(OC(F)(F)F)cc3)n2)c1 [Example 13] |
